Experimental findings from patent publication US10058525B2, “Application of chlorogenic acid in preparing medicines for treating lupus erythematosus” (SICHUAN JIUZHANG BIOLOGICAL SCIENCE AND TECHNOLOGY CO., LTD., priority 2015, dated 2018) are described below.

Assay [1] has as its system ANA. The assay is described as follows: Serologic detection of ANA by immunofluorescence on HEp-2 cell sheets, serum of UV + LPS lupus model mice. The settings on record: intragastric. Further details: key: (+): positive; (−): negative; (++++): intense fluorescence; (+++): stronger fluorescence; (++): weeker fluorescence. The class given is in vivo, BALB/c mice. On the procedure:
(§1) The back of mice was shaved and acutely exposed to Ultraviolet of 2 h/d*3 d, with a distance of 30 cm. After exposure to UV, 2.5 mg/kg of LPS was administrated once by ip, and after 24 h, the model was successfully established; the mice in the normal control group received normal saline via ip. 24 h after injection of LPS (ip), medicines were given to the model mice by intragastric administration. Chlorogenic acid test groups received high, middle, and low doses of medicines, by intragastric administration at a respective dosage of 10 mg/kg*d, 20 mg/kg*d, and 40 mg/kg*d. The positive control group A received 2 mg/kg*d of artesunate by stomach perfusion, while the positive control group B received 1 mg/kg*d of prednisone by stomach perfusion. Mice in the model and normal control group all received 0.4 ml/mouse normal saline by gavage. After 15 days of administration, animals in each group were taken blood by separating eyeballs on days 14, 21, 28, and after cultured in water bath at 37° C. for 1 h, the blood sample was centrifugated at 2000 r/min for 5 min, to draw serum for use. On day 21, after blood collection, animals were sacrificed by dislocation, followed by collection of liver and kidney, and they were placed in fixative solutions of electron microscope and light microscrope, respectively. Serum of mice was diluted at 1:100 with special buffer solution of Shenzhen Hengjia, and then 200 μL of diluted serum was respectively added to the reactive tank with corresponding number, cultured in the incubator at 37° C. for 30 min, and washed with the buffer solution four times, 2 min for each time; 200 μL of diluted biotin goat anti-mouse IgG (1:100) was added, cultured in the incubator at 37° C. for 30 min, and then washed with the buffer solution four times, 2 min for each time; 100 μL of diluted HRP-avidin (1:100) was added, cultured in the incubator at 37° C. for 30 min, and then washed as mentioned-above; reactive solutions A and B were added till appearance of positive bands, then washed with the buffer solution. Compared with the standard bands of ENA polypeptide antibody spectrum in the same kit, if the positive bands appeared at 28/29,13.5 ku polypeptide; 15,16.5,38 kupolypeptide; 52 kupolypeptide and 47/48,45 kupolypeptide, that can be determined as anti-Sm, anti-Rib, anti-ssA, and anti-ssB positive antibody. Serum was diluted with PBS at 1:40, then 20-30 μL of diluted serum was dropped into the scrobiculus of HEp-2 cell sheets, each cell sheet for each group. In the process of dropping serum, it should be noted that the surface of cell sheet can not be touched. After addition of serum, cell sheet was placed in wet box and kept for 30 min at room temperature (25° C.). After 30 min, the cell sheet was taken out, and serum was carefully washed out with PBS, then carefully washed twice with PBS, 5 min for each time; after washing, the remained PBS was removed by special absorbent paper of […] company (In this process, it should be noted that becoming dry of cell substrates will affect the results). 20-30 μL of diluted (PBS, 1:100) FITC goat anti-mouse IgG was added by dropping, and then incubated in wet box at room temperature for 30 min. After washing with PBS, steps were same to above. The remained PBS was removed by absorbent paper, and 1-2 drops of fluorescent mounting media were added to the cell sheet. The cover glass was mounted, observed under Olympus BH-2 universal microscope, and then photographed.

Assay [2] deals with ANA. The assay is described as above. The settings on record: day 14, intragastric. The class given is in vivo, BALB/c mice. Further details: key: (+): positive; (−): negative; (++++): intenseintensity; (+++): stronger fluorescent intensity. The procedure: as §1
The test system of another assay is lupus erythematosus. As to the kind of experiment: Screening medicines for treatment of lupus erythematosus. The settings on record: screening of extracts and potency constituents; no method given.
Assay [3] relates to lupus erythematosus model mice (kidney, liver). As to the kind of experiment: Triple staining (silver staining) of kidney and liver sections under light microscope, lupus model mice. The class given is in vivo, BALB/c mice. On the procedure: The back of mice was shaved and acutely exposed to Ultraviolet of 2 h/d*3 d, with a distance of 30 cm. After exposure to UV, 2.5 mg/kg of LPS was administrated once by ip, and after 24 h, the model was successfully established; the mice in the normal control group received normal saline via ip. 24 h after injection of LPS (ip), medicines were given to the model mice by intragastric administration. Chlorogenic acid test groups received high, middle, and low doses of medicines, by intragastric administration at a respective dosage of 10 mg/kg*d, 20 mg/kg*d, and 40 mg/kg*d. The positive control group A received 2 mg/kg*d of artesunate by stomach perfusion, while the positive control group B received 1 mg/kg*d of prednisone by stomach perfusion. Mice in the model and normal control group all received 0.4 ml/mouse normal saline by gavage. After 15 days of administration, animals in each group were taken blood by separating eyeballs on days 14, 21, 28, and after cultured in water bath at 37° C. for 1 h, the blood sample was centrifugated at 2000 r/min for 5 min, to draw serum for use. On day 21, after blood collection, animals were sacrificed by dislocation, followed by collection of liver and kidney, and they were placed in fixative solutions of electron microscope and light microscrope, respectively.
[…] The thickness of slice is 3 μm, and at beginning of staining, wax was routinely deprived to water. After oxidation with 0.5% periodic acid, the slice was macerated in hexamine silver fluid for about 2 h (constant temperature 58° C.), washed with distilled water, dyed with hematoxylin for 1 min. After washing with water, the slice was dyed by dropping the ponceau staining solution for 5 min, differentiated with 70% ethanol, dehydrated with gradient ethanol, cleared with xylene, and sealed with neutral gum.

[4] abbreviates: chlorogenic acid group administrated for 28 days.

For `O=C(/C=C/c1ccc(O)c(O)c1)O[C@@H]1C[C@](O)(C(=O)O)C[C@@H](O)[C@H]1O` [Chlorogenic acid, 3-O-caffeoylquinic acid], the ANA result is “(++)” in the assay on ANA [1] (day 21, chlorogenic acid high dose); “(+++)” in the assay on ANA [1] (day 21, chlorogenic acid low dose); “(++)” in the assay with ANA [1] (day 21, chlorogenic acid middle dose); “(++)” with ANA [1] (day 28, chlorogenic acid high dose); “(+++)” in the assay with ANA [1] (day 28, chlorogenic acid low dose); “(++)” in the assay with ANA [1] (day 28, chlorogenic acid middle dose). Besides, the ANA entry is reported as “(+++)” in the assay with ANA [2] (chlorogenic acid high dose), “(++++)” in the assay with ANA [2] (chlorogenic acid low dose) and “(+++)” in the assay with ANA [2] (chlorogenic acid middle dose). Also, the “inhibition on lupus erythematosus” value in the assay on lupus erythematosus is on record as “more obvious inhibition”. Besides, the “staining of hepatic blood vessel basilar membrane” value in assay [3] (setting [4]) is “somewhat recovered”. For the same molecule, the “thickening degree of renal glomerular and tubular basilar membrane” value in assay [3] (setting [4]) was “reduced compared with normal mice”. Moreover, the “basilar membrane of renal glomerulus and tubule, pathological section” value in assay [3] (chlorogenic acid, 21 days) is “increased thickness compared with normal mice”. Further, in assay [3] (chlorogenic acid, 21 days, especially high dose group), the “pathological section of kidney: conditions versus model group” value is on record as “better than the model group”. Besides, the “thickening of renal glomerulus and tubular basement membrane (FIG. 8)” value in assay [3] (high dose of chlorogenic acid, 28 days, ×50) was “thickening degree of renal glomerulus and tubular basement membrane reduces”.
